In patent US10479784B2, “Substituted pyrazin-2-amines as inhibitors of ATR kinase” (Vertex Pharmaceuticals Incorporated, priority 2008, dated 2019):

Molecular target: full-length ATR (Homo sapiens (Human), UniProt Q13535)
Test: ATR Inhibition Assay (radioactive-phosphate incorporation)
Format: biochemical
Settings: read-out: ATR Ki
Experimental: Compounds were screened for their ability to inhibit ATR kinase using a radioactive-phosphate incorporation assay. Assays were carried out in a mixture of 50 mM Tris/HCl (pH 7.5), 10 mM MgCl2 and 1 mM DTT. Final substrate concentrations were […] [γ-33P]ATP (3mCi 33P ATP/mmol ATP, Perkin Elmer) and 800 μM target peptide ([…]).
Assays were carried out at 25° C. in the presence of 5 nM full-length ATR. An assay stock buffer solution was prepared containing all of the reagents listed above, with the exception of ATP and the test compound of interest. […] The plate was pre-incubated for 10 minutes at 25° C. and the reaction initiated by addition of 15 μL [γ-33P]ATP (final concentration 10 μM).
The reaction was stopped after […] by the addition of 30 μL 0.1M phosphoric acid containing 2 mM ATP. A multiscreen phosphocellulose filter 96-well plate (Millipore, Cat no. MAPHN0B50) was pretreated with 100 μL 0.2M phosphoric acid prior to the addition of 45 μL of the stopped assay mixture. […] After drying, 100 μL Optiphase ‘SuperMix’ liquid scintillation cocktail (Perkin Elmer) was added to the well prior to scintillation counting (1450 Microbeta Liquid Scintillation Counter, Wallac).
After removing mean background values for all of the data points, Ki(app) data were calculated from non-linear regression analysis of the initial rate data using the Prism software package (GraphPad Prism version 3.0cx for Macintosh, GraphPad Software, San Diego Calif., USA).

Sequence of full-length ATR (Q13535 whole entry): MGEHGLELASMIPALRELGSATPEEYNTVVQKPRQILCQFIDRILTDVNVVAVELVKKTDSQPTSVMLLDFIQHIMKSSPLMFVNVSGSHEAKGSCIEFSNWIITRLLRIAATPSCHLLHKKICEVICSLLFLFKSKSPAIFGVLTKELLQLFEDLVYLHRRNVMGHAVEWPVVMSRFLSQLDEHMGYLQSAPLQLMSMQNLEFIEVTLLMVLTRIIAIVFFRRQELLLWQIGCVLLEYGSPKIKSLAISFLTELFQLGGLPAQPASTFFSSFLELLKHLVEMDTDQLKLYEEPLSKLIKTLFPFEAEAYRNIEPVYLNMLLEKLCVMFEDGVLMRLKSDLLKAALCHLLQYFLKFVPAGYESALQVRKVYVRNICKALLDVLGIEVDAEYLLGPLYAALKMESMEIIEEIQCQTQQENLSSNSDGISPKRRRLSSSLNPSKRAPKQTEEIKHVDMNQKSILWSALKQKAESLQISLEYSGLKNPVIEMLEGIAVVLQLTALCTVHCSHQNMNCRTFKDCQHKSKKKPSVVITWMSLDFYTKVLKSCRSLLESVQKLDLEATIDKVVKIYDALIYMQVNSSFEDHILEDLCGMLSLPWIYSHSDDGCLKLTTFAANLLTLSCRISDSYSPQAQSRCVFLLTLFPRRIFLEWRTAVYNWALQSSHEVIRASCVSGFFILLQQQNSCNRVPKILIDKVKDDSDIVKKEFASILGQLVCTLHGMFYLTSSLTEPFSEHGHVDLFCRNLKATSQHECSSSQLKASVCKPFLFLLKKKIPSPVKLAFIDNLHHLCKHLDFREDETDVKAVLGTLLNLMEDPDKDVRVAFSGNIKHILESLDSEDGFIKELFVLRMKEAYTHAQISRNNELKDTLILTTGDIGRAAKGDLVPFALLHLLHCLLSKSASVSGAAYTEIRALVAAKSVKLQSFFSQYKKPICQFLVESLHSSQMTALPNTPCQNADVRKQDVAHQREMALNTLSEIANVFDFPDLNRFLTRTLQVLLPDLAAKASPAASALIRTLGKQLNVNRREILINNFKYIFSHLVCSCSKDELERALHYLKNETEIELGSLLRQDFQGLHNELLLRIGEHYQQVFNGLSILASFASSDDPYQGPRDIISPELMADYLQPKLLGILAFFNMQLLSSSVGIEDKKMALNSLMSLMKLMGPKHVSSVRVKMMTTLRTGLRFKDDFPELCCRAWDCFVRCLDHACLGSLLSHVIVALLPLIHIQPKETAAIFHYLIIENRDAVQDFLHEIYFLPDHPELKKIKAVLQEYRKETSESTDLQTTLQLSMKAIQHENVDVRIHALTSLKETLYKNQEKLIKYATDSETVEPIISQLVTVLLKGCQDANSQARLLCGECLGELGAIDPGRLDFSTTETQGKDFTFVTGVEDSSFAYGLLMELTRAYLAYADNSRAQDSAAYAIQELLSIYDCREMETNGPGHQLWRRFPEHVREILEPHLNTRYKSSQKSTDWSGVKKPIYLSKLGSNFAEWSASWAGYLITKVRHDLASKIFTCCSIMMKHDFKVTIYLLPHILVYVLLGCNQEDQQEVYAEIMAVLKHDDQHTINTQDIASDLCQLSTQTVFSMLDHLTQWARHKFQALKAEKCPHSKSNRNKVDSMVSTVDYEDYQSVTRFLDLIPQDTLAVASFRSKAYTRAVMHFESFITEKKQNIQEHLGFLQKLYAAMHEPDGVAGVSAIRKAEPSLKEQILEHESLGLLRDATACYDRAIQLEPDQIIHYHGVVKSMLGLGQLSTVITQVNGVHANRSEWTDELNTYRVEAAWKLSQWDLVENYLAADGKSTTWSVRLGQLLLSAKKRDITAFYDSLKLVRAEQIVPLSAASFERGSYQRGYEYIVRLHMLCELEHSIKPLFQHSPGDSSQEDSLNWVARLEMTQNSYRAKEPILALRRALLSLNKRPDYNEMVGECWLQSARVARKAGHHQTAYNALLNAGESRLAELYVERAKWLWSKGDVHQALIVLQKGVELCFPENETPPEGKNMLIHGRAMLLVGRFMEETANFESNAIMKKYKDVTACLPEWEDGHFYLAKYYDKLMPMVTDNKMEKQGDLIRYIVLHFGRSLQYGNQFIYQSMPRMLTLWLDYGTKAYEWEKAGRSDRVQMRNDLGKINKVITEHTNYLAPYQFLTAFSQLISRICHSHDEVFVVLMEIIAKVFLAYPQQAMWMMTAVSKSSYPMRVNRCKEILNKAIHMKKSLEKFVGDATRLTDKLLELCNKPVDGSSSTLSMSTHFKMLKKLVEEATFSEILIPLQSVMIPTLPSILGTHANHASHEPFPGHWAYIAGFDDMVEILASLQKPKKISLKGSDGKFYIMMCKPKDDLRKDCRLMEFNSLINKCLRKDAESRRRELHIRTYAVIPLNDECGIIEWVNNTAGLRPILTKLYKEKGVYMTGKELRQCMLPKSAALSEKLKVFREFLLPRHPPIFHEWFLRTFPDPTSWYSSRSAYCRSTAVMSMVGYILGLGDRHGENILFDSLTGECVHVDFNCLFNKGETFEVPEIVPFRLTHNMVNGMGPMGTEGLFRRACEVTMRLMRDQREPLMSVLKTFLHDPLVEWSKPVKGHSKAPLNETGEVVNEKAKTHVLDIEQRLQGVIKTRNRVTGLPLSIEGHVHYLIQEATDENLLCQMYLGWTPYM

| Ki [nM] | Structure (SMILES) |
| --- | --- |
| 10 to 100 | CC(C)S(=O)(=O)c1ccc(-c2cnc(N)c(-c3nnc(-c4cccc(C#N)c4)o3)n2)cc1 [IA-187, 3-[5-[3-amino-6-(4-isopropylsulfonylphenyl)pyrazin-2-yl]-1,3,4-oxadiazol-2-yl]benzonitrile] |
| ≤ 10 | CC(C)S(=O)(=O)c1ccc(-c2cnc(N)c(-c3nnc(-c4ccc(C5CCCN5)s4)o3)n2)cc1 (centres unmarked) [IA-147, 5-(4-isopropylsulfonylphenyl)-3-[5-(5-pyrrolidin-2-yl-2-thienyl)-1,3,4-oxadiazol-2-yl]pyrazin-2-amine] |
| ≤ 10 | CN1CCN(C(=O)c2ccc(-c3cnc(N)c(-c4nnc(-c5ccccc5)o4)n3)cc2)CC1 [IA-9] |
| ≤ 10 | CCC1CN(C(=O)c2ccc(-c3cnc(N)c(-c4nnc(-c5ccccc5)o4)n3)cc2)CCN1 (centres unmarked) [IA-18] |
| 10 to 100 | Cc1ccc2nc(-c3nc(-c4ccc(C(=O)N5CCCN(C)CC5)cc4)cnc3N)[nH]c2c1 [Compound I-151, (4-(5-amino-6-(6-methyl-1H-benzo[d]imidazol-2-yl)pyrazin-2-yl)phenyl)(4-methyl-1,4-diazepan-1-yl)methanone] |
| 100 to 5000 | CC(=O)Nc1cccc(NC(=O)c2nc(-c3cccnc3)cnc2N)c1 [Compound I-95, 3-amino-N-(3-ethanamidophenyl)-6-(pyridin-3-yl)pyrazine-2-carboxamide] |
| ≤ 10 | CC(C)S(=O)(=O)c1ccc(-c2cnc(N)c(-c3cc(-c4ccc(CNCCO)cc4)no3)n2)cc1 [IIA-9, 2-(4-(5-(3-amino-6-(4-(isopropylsulfonyl)phenyl)pyrazin-2-yl)isoxazol-3-yl)benzylamino)ethanol] |
| ≤ 10 | CNCc1ccc(-c2nnc(-c3nc(-c4ccc(S(=O)(=O)C(C)C)cn4)cnc3N)o2)cc1 [IA-300, 5-(5-isopropylsulfonyl-2-pyridyl)-3-[5-[4-(methylaminomethyl)phenyl]-1,3,4-oxadiazol-2-yl]pyrazin-2-amine] |
| 10 to 100 | Nc1ncc(-c2cccc(C(=O)NC3CCOCC3)c2)nc1C(=O)Nc1ccccc1 [Compound I-66, 3-amino-N-phenyl-6-(3-(tetrahydro-2H-pyran-4-ylcarbamoyl)phenyl) pyrazine-2-carboxamide] |
| ≤ 10 | CNCc1cccc(-c2nnc(-c3nc(-c4ccc(S(=O)(=O)C(C)C)cc4)cnc3N)o2)c1 [IA-146, 5-(4-isopropylsulfonylphenyl)-3-[5-[3-(methylaminomethyl)phenyl]-1,3,4-oxadiazol-2-yl]pyrazin-2-amine] |
| 100 to 5000 | CC(=O)NCc1ccc(-c2cnc(N)c(-c3nc4ccccc4[nH]3)n2)cc1 [Compound I-130, N-(4-(5-amino-6-(1H-benzo[d]imidazol-2-yl)pyrazin-2-yl)benzyl) ethanamide] |
| 10 to 100 | N#Cc1cccc(-c2cnc(N)c(-c3nnc(-c4ccccc4)o3)n2)c1 [IA-252, 3-[5-amino-6-(5-phenyl-1,3,4-oxadiazol-2-yl)pyrazin-2-yl]benzonitrile] |
| ≤ 10 | CNCc1ccc(-c2nnc(-c3nc(-c4ccc(S(=O)(=O)C(C)C)c(F)c4)cnc3N)o2)cc1 [IA-314, 5-(3-fluoro-4-isopropylsulfonyl-phenyl)-3-[5-[4-(methylaminomethyl)phenyl]-1,3,4-oxadiazol-2-yl]pyrazin-2-amine] |
| 10 to 100 | CN(C)C(=O)c1ccc(-c2cnc(N)c(-c3nnc(-c4ccnc(N)c4)o3)n2)cc1 [IA-223, 4-[5-amino-6-[5-(2-amino-4-pyridyl)-1,3,4-oxadiazol-2-yl]pyrazin-2-yl]-N,N-dimethyl-benzamide] |
| 10 to 100 | Nc1ncc(-c2ccc(O)nc2)nc1-c1nc2ccccc2[nH]1 [Compound I-137, 5-(5-amino-6-(1H-benzo[d]imidazol-2-yl)pyrazin-2-yl)pyridin-2-ol] |
| ≤ 10 | CC(C)S(=O)(=O)c1ccc(-c2cnc(N)c(-c3nnc(-c4ccc([C@@H](C)N)cc4)o3)n2)cc1 [IA-124, 3-[5-[4-[(1R)-1-aminoethyl]phenyl]-1,3,4-oxadiazol-2-yl]-5-(4-isopropylsulfonylphenyl)pyrazin-2-amine] |
| 10 to 100 | CN(C)C(=O)c1ccc(-c2cnc(N)c(-c3nnc(-c4cccc(CO)c4)o3)n2)cc1 [IA-198, 4-[5-amino-6-[5-[3-(hydroxymethyl)phenyl]-1,3,4-oxadiazol-2-yl]pyrazin-2-yl]-N,N-dimethyl-benzamide] |
| 100 to 5000 | CS(=O)(=O)c1ccc(-c2cnc(N)c(C(=O)Nc3n[nH]c4ccccc34)n2)cc1 [Compound V-13] |
| 10 to 100 | Nc1ncc(-c2ccc(C(=O)N3CCCC3)cc2)nc1C(=O)Nc1ccccc1 [Compound I-70, 3-amino-N-phenyl-6-(4-(pyrrolidine-1-carbonyl)phenyl)pyrazine-2-carboxamide] |

| Ki [nM] | Structure (SMILES) |
| --- | --- |
| ≤ 10 | CC(C)S(=O)(=O)c1ccc(-c2cnc(N)c(-c3nnc(-c4ccc(CNC5CC5)cc4)o3)n2)cc1 [IA-158, 3-[5-[4-[(cyclopropylamino)methyl]phenyl]-1,3,4-oxadiazol-2-yl]-5-(4-isopropylsulfonylphenyl)pyrazin-2-amine] |
| 10 to 100 | Nc1cccc(-c2nnc(-c3nc(-c4cccnc4)cnc3N)[nH]2)c1 [Compound I-140, 3-(5-(3-aminophenyl)-4H-1,2,4-triazol-3-yl)-5-(pyridin-3-yl)pyrazin-2-amine] |
| 100 to 5000 | Nc1ncc(-c2cccc(C(=O)O)c2)nc1C(=O)Nc1ccccc1 [Compound I-8, 3-(5-amino-6-(phenylcarbamoyl)pyrazin-2-yl)benzoic acid] |
| 10 to 100 | Nc1ncc(-c2ccc(C(=O)N3CCNCC3)cc2)nc1-c1nnc(-c2ccccc2)o1 [IA-12] |
| 10 to 100 | Nc1ncc(-c2ccc(C(=O)NC3CCOCC3)cc2)nc1C(=O)Nc1ccccc1 [Compound I-47, 3-amino-N-phenyl-6-(4-(tetrahydro-2H-pyran-4-ylcarbamoyl)phenyl)pyrazine-2-carboxamide] |
| ≤ 10 | CNCc1ccc(-c2nnc(-c3nc(-c4ccc(S(=O)(=O)C(C)C)cc4Cl)cnc3N)o2)cc1 [IA-316, 5-(2-chloro-4-isopropylsulfonyl-phenyl)-3-[5-[4-(methylaminomethyl)phenyl]-1,3,4-oxadiazol-2-yl]pyrazin-2-amine] |
| ≤ 10 | CC(C)S(=O)(=O)c1ccc(-c2cnc(N)c(-c3nnc(-c4ccc(C5CCCN5)cc4)o3)n2)cc1 (centres unmarked) [IA-102, 5-(4-isopropylsulfonylphenyl)-3-[5-(4-pyrrolidin-2-ylphenyl)-1,3,4-oxadiazol-2-yl]pyrazin-2-amine] |
| 10 to 100 | Nc1ncc(-c2cccnc2)nc1-c1nnc(-c2cccs2)[nH]1 [Compound I-142, 5-(pyridin-3-yl)-3-(5-(thiophen-2-yl)-4H-1,2,4-triazol-3-yl)pyrazin-2-amine] |
| 100 to 5000 | Nc1ncc(-c2cccnc2)nc1C(=O)Nc1ccccc1F [Compound I-96, 3-amino-N-(2-fluorophenyl)-6-(pyridin-3-yl)pyrazine-2-carboxamide] |
| ≤ 10 | CNCc1ccc(-c2nnc(-c3nc(-c4ccc(S(=O)(=O)CCN(C)C)cc4)cnc3N)o2)cc1 [IA-289, 5-[4-(2-dimethylaminoethylsulfonyl)phenyl]-3-[5-[4-(methylaminomethyl)phenyl]-1,3,4-oxadiazol-2-yl]pyrazin-2-amine] |
| ≤ 10 | CN(C)[C@@H]1CCN(C(=O)c2ccc(-c3cnc(N)c(-c4nnc(-c5ccccc5)o4)n3)cc2F)C1 [IA-5] |
| ≤ 10 | CC(C)S(=O)(=O)c1ccc(-c2cnc(N)c(-c3nnc(-c4ccc(CN)cc4)o3)n2)cc1 [IA-222, 3-[5-[4-(aminomethyl)phenyl]-1,3,4-oxadiazol-2-yl]-5-(4-isopropylsulfonylphenyl)pyrazin-2-amine] |
| ≤ 10 | CS(=O)(=O)c1ccc(-c2cnc(N)c(-c3nc4ccc(C(F)(F)F)cc4[nH]3)n2)cc1 [Compound I-118, 5-(4-(methylsulfonyl)phenyl)-3-(6-(trifluoromethyl)-1H-benzo[d]imidazol-2-yl)pyrazin-2-amine] |
| 100 to 5000 | Nc1ncc(-c2cccc(C(=O)N3CCC(O)C3)c2)nc1C(=O)Nc1ccccc1 (centres unmarked) [Compound I-65, 3-amino-6-(3-(3-hydroxypyrrolidine-1-carbonyl)phenyl)-N-phenylpyrazine-2-carboxamide] |
| 10 to 100 | N#Cc1ccc(-c2cnc(N)c(C(=O)Nc3ccccc3)n2)cc1 [Compound I-21, 3-amino-6-(4-cyanophenyl)-N-phenylpyrazine-2-carboxamide] |
| 10 to 100 | Nc1ncc(-c2ccc(N3CCOCC3)nc2)nc1C(=O)Nc1ccccc1 [Compound I-34, 3-amino-6-(6-morpholinopyridin-3-yl)-N-phenylpyrazine-2-carboxamide] |
| 10 to 100 | Nc1ncc(-c2cccnc2)nc1-c1nnc(-c2cccs2)[nH]1 [IIIA-4, 5-(pyridin-3-yl)-3-(5-(thiophen-2-yl)-4H-1,2,4-triazol-3-yl)pyrazin-2-amine] |
| 10 to 100 | CS(=O)(=O)Nc1ccc(-c2cnc(N)c(C(=O)Nc3ccccc3)n2)cc1 [Compound I-5, 3-amino-6-(4-(methylsulfonamido)phenyl)-N-phenylpyrazine-2-carboxamide] |

| Structure (SMILES) | Ki [nM] |
| --- | --- |
| CC(C)S(=O)(=O)c1ccc(-c2cnc(N)c(-c3nnc(-c4ccc(CNCC(F)F)s4)o3)n2)cc1 [IA-236, 3-[5-[5-[(2,2-difluoroethylamino)methyl]-2-thienyl]-1,3,4-oxadiazol-2-yl]-5-(4-isopropylsulfonylphenyl)pyrazin-2-amine] | 10 to 100 |
